The data set relates to GENE-TOX genotoxicity assays, various organisms and cells. Briefly: GENE-TOX mutagenicity studies. The settings on record: for call: Assay Type: In vivo carcinogenicity studies. An excerpt: GENE-TOX provides genetic toxicology (mutagenicity) test data from expert peer review of open scientific literature for more than 3,000 chemicals from the United States Environmental Protection Agency (EPA). GENE-TOX was established to select assay systems for evaluation, review data in the scientific literature, and recommend proper testing protocols and evaluation procedures for these systems.
GENE-TOX covers the years 1991 - 1998. It is no longer updated.
This is an archive assay for GENE-TOX mutagenicity studies.

Where [1] appears, read: Species/Cell Type: Human diploid fibroblasts, Assay Type: Unscheduled DNA synthesis (UDS) in vitro, DNA effects, Assay Code: UDH+, Evaluation Type: Evaluation A (Pre-1980).
Setting [2] is: Species/Cell Type: Salmonella typhimurium (one or more of the five standard strains: TA98, TA100, TA1535, TA1537, and TA1538), Assay Type: Histidine reverse gene mutation, Ames assay, Assay Code: SALT, Evaluation Type: Evaluation A (Pre-1980).
The mark [3] stands for this setting: Species/Cell Type: Human lymphocytes, Assay Type: Sister-chromatid exchange (SCE) in vitro, Assay Code: SCL+D, Dose Response: With dose response, Evaluation Type: Evaluation B (Post-1980).
Setting [4] is: Species/Cell Type: Human, Assay Type: Sister-chromatid exchange (SCE) in vitro, Assay Code: SC1+D, Dose Response: With dose response, Evaluation Type: Evaluation B (Post-1980).
The mark [5] stands for this setting: Species/Cell Type: Mammalian polychromatic erythrocytes, Assay Type: Micronucleus test, chromosome aberrations, Assay Code: MNTT, Evaluation Type: Evaluation A (Pre-1980).
Setting [6] is: Species/Cell Type: Mouse prostate cells, Assay Type: Cell transformation, Assay Code: CTM+D, Dose Response: With dose response, Evaluation Type: Evaluation A (Pre-1980).
Where [7] appears, read: Species/Cell Type: Neurospora crassa, Assay Type: Forward gene mutation, Assay Code: NEF+, Evaluation Type: Evaluation A (Pre-1980).
Where [8] appears, read: Species/Cell Type: Nonhuman, Assay Code: CCG+, Evaluation Type: Evaluation A (Pre-1980).
The mark [9] stands for this setting: Species/Cell Type: Salmonella typhimurium (one or more of the five standard strains: TA98, TA100, TA1535, TA1537, and TA1538), Assay Type: Histidine reverse gene mutation, Ames assay, Assay Code: SAL+*, Activation: With metabolic activation, Evaluation Type: Evaluation A (Pre-1980).
Where [10] appears, read: Species/Cell Type: Nonhuman, Assay Type: Sister-chromatid exchange (SCE) in vivo, Assay Code: SC3+, Evaluation Type: Evaluation B (Post-1980).

This is an account of results in PubChem BioAssay AID1259408 (Genetic Toxicology Data Bank (GENE-TOX), 2018).

The structures appear in SMILES notation. Active and inactive are the calls of the source. No rule for the calls is given here.

Consider `O=C1CC[C@@]2(O)[C@H]3Cc4ccc(O)c5c4[C@@]2(CCN3CC2CC2)[C@H]1O5`, for which the mutagenic call runs as follows: (Species/Cell Type: Drosophila melanogaster, Assay Type: Sex-linked recessive lethal gene mutation, Assay Code: SRL+, Evaluation Type: Evaluation A (Pre-1980)) “active; positive”; (Species/Cell Type: Drosophila melanogaster, Sex: Male, Assay Type: Heritable translocation test, chromosome aberrations, Assay Code: DHT-, Evaluation Type: Evaluation A (Pre-1980)) “inactive; negative”; under setting [1], “active; positive”; (Species/Cell Type: Saccharomyces cerevisiae, Assay Type: Mitotic recombination or gene conversion, Assay Code: YEC-, Evaluation Type: Evaluation A (Pre-1980)) “inactive; negative”; under setting [2], “no conclusion”.
Consider `Cc1nccc2c1[nH]c1ccccc12`, for which the mutagenic call by setting is: under setting [3], “active; positive”; under setting [4], “active; positive”; under setting [2], “no conclusion”.
For `Cc1ccc2cc3c(ccc4ccccc43)c3c2c1CC3`, the mutagenic call (Species/Cell Type: Chinese hamster lung (V79) cells, Assay Type: Forward gene mutation at the HPRT or ouabain locus, Assay Code: V79+*, Activation: With metabolic activation, Evaluation Type: Evaluation A (Pre-1980)) was “active; positive”; the mutagenic call (Species/Cell Type: Chinese hamster lung (V79) cells, Assay Type: Forward gene mutation, host-mediated assay, Assay Code: HMG+, Evaluation Type: Evaluation A (Pre-1980)) is “active; positive”; the mutagenic call (Species/Cell Type: Chinese hamster ovary (CHO) cells, Assay Type: Forward gene mutation at the HPRT locus, Assay Code: CHO+*, Activation: With metabolic activation, Evaluation Type: Evaluation B (Post-1980)) was “active; positive”; the mutagenic call (Species/Cell Type: Drosophila melanogaster, Assay Type: Sex-linked recessive lethal gene mutation, Assay Code: SRLT, Evaluation Type: Evaluation A (Pre-1980)) is recorded as “no conclusion”; the mutagenic call (Species/Cell Type: Fischer rat embryo (RLV/1706) cells, Assay Type: Cell transformation, viral enhanced, Assay Code: CTR+, Evaluation Type: Evaluation A (Pre-1980)) was “active; positive”; the mutagenic call (Species/Cell Type: Fischer rat embryo (SA7/RE) cells, Assay Type: Cell transformation, viral enhanced, Assay Code: CTA+, Evaluation Type: Evaluation A (Pre-1980)) was “active; positive”. The mutagenic call reads like this: under setting [1], “active; positive”; under setting [3], “active; positive”; under setting [4], “active; positive”; under setting [5], “no conclusion”; (Species/Cell Type: Mouse (BALB/c-3T3) cells, Assay Type: Cell transformation, Assay Code: CTB+D, Dose Response: With dose response, Evaluation Type: Evaluation A (Pre-1980)) “active; positive”; (Species/Cell Type: Mouse (C3H/10T1/2) cells, Assay Type: Cell transformation, Assay Code: CTH+D, Dose Response: With dose response, Evaluation Type: Evaluation A (Pre-1980)) “active; positive”. Moreover, the mutagenic call runs as follows: (Species/Cell Type: Mouse embryo (AKR/ME) cells, Assay Type: Cell transformation, Assay Code: CTK+, Evaluation Type: Evaluation A (Pre-1980)) “active; positive”; under setting [6], “active; positive”; (Species/Cell Type: Mouse, Sex: Male, Assay Type: Sperm morphology, Assay Code: SPI+, Evaluation Type: Evaluation A (Pre-1980)) “active; positive”; under setting [7], “active; positive”; (Species/Cell Type: Nonhuman, Assay Type: Chromosome aberrations in vitro, Assay Code: CY&-, Evaluation Type: Evaluation A (Pre-1980)) “inactive; negative”; (Species/Cell Type: Nonhuman, Assay Type: Sister-chromatid exchange (SCE) in vitro, Assay Code: SC2+, Evaluation Type: Evaluation A (Pre-1980)) “active; positive”. Further, the mutagenic call reads like this: (Species/Cell Type: Nonhuman, Assay Type: Sister-chromatid exchange (SCE) in vivo, Assay Code: SC3+D, Dose Response: With dose response, Evaluation Type: Evaluation A (Pre-1980)) “active; positive”; (Species/Cell Type: Rat primary hepatocytes, Assay Type: Unscheduled DNA synthesis (UDS) in vitro, DNA effects, Assay Code: UDP+D, Dose Response: With dose response, Evaluation Type: Evaluation A (Pre-1980)) “active; positive”; under setting [9], “active; positive”; (Species/Cell Type: Salmonella typhimurium, Assay Type: Forward and reverse gene mutation, body fluid assay, Assay Code: BFU-, Evaluation Type: Evaluation A (Pre-1980)) “inactive; negative”; (Species/Cell Type: Syrian hamster embryo (SA7/SHE) cells, Assay Type: Cell transformation, viral enhanced, Assay Code: CT7+, Evaluation Type: Evaluation A (Pre-1980)) “active; positive”; (Species/Cell Type: Syrian hamster embryo (SHE) cells, Assay Type: Cell transformation, clonal assay, Assay Code: CTC+D, Dose Response: With dose response, Evaluation Type: Evaluation A (Pre-1980)) “active; positive”. Further, the mutagenic call (Species/Cell Type: Syrian hamster embryo (SHE) cells, Assay Type: Cell transformation, focus assay, Assay Code: CTF+, Evaluation Type: Evaluation A (Pre-1980)) was “active; positive”. Moreover, under setting [8], the call was “active; positive”.
As to `Cc1cc(N=Nc2ccccc2C)ccc1N`, the mutagenic call reads like this: (Species/Cell Type: Escherichia coli polA (W3110 vs P3478), Assay Type: Rec-assay, DNA effects (bacterial DNA repair), Assay Code: RE2+, Evaluation Type: Evaluation A (Pre-1980)) “active; positive”; (Species/Cell Type: Escherichia coli polA (W3119 vs P3478), Assay Type: Rec-assay, DNA effects (bacterial DNA repair), Assay Code: RE1T, Evaluation Type: Evaluation A (Pre-1980)) “no conclusion”; under setting [7], “active; positive”; (Species/Cell Type: Nonhuman, Assay Type: Sister-chromatid exchange (SCE) in vitro, Assay Code: SC2+D, Dose Response: With dose response, Evaluation Type: Evaluation B (Post-1980)) “active; positive”; (Species/Cell Type: Nonhuman, Assay Type: Sister-chromatid exchange (SCE) in vitro, Assay Code: SC2T, Evaluation Type: Evaluation A (Pre-1980)) “no conclusion”; under setting [10], “active; positive”. Also, the mutagenic call was “inactive; negative” (Species/Cell Type: Saccharomyces cerevisiae, Assay Type: Mitotic recombination or gene conversion, Assay Code: YEH-, Evaluation Type: Evaluation A (Pre-1980)); “active; positive” under setting [9]; “no conclusion” under setting [2]; “inactive; negative” (Species/Cell Type: Salmonella typhimurium, Assay Type: Forward and reverse gene mutation, host-mediated assay, Assay Code: HMA-, Evaluation Type: Evaluation A (Pre-1980)); “active; positive” (Species/Cell Type: Syrian hamster embryo (SHE) cells, Assay Type: Cell transformation, clonal assay, Assay Code: CTC+, Evaluation Type: Evaluation A (Pre-1980)). For the same compound, the call under setting [8] is “active; positive”.
Turning to `Cc1c2c(c(C)c3c1ccc1ccccc13)C=C[C@@H](O)[C@@H]2O`, the mutagenic call reads like this: (Species/Cell Type: Chinese hamster lung (V79) cells, Assay Type: Forward gene mutation at the HPRT or ouabain locus, Assay Code: V79+, Evaluation Type: Evaluation A (Pre-1980)) “active; positive”; under setting [6], “active; positive”. In addition, the call (Species/Cell Type: Nonhuman, Assay Code: CCGT, Evaluation Type: Evaluation A (Pre-1980)) is listed as “no conclusion”.
As for `CC/C(=C(/CC)c1ccc(OP(=O)(O)O)cc1)c1ccc(OP(=O)(O)O)cc1`, the mutagenic call by setting is: under setting [5], “no conclusion”; (Species/Cell Type: Neurospora crassa, Assay Type: Aneuploidy, chromosome aberrations, Assay Code: NEN-, Evaluation Type: Evaluation A (Pre-1980)) “inactive; negative”; (Species/Cell Type: Nonhuman, Assay Type: Sister-chromatid exchange (SCE) in vivo, Assay Code: SC3-, Evaluation Type: Evaluation B (Post-1980)) “inactive; negative”; (Species/Cell Type: Rodents, Sex: Male, Assay Type: Dominant lethal test, Assay Code: DLT+, Evaluation Type: Evaluation A (Pre-1980)) “active; positive”.
Turning to `CS(=O)(=O)OC[C@@H](O)[C@H](O)COS(C)(=O)=O`, the mutagenic call runs as follows: (Species/Cell Type: Allium cepa, Assay Type: Chromosome aberrations, Assay Code: ALC+, Evaluation Type: Evaluation A (Pre-1980)) “active; positive”; (Species/Cell Type: Arabidopsis species, Assay Type: Gene mutation, Assay Code: ARM+, Evaluation Type: Evaluation A (Pre-1980)) “active; positive”.
Consider `Nc1ccc(N)c(Cl)c1`, for which the call (Species/Cell Type: Nonhuman, Assay Code: CCG-L, Evaluation Type: Evaluation A (Pre-1980)) is “inactive; negative”.
For the compound `c1ncc2[nH]cnc2n1`, the mutagenic call (Species/Cell Type: Escherichia coli polA (W3119 vs P3478), Assay Type: Rec-assay, DNA effects (bacterial DNA repair), Assay Code: RE1-, Evaluation Type: Evaluation A (Pre-1980)) was “inactive; negative”.
`Nc1ccc(N=Nc2ccc(S(=O)(=O)O)cc2)c(N)c1`: under setting [9], the mutagenic call is “active; positive”.
On to `c1ccc2c(c1)-c1ccc3ccc4cccc5cc-2c1c3c45`, for which the call under setting [8] was “active; positive”.
For `NNC(=O)COc1ccc(Br)cc1CN1CCCCC1`, the mutagenic call (Species/Cell Type: Saccharomyces cerevisiae, Assay Type: Reverse gene mutation, Assay Code: YERT, Evaluation Type: Evaluation A (Pre-1980)) is listed as “no conclusion”.
With `Cc1cc(C(=O)NNCc2ccccc2)no1`, the mutagenic call under setting [10] was “active; positive”.
